From patent US20220002288A1, “MONOBACTAM COMPOUNDS AND USE THEREFOR” (priority 2018, published 2022)
≈ marks a conversion by molar mass, not a printed value. Where a name gives a salt, the structure may show the parent alone. Read-outs that look alike come from different tables or passages of the source.

Columns and labels:
[1] = Pharmacokinetics of the compounds in mice; assay type: in vivo, BALB/c mice; conditions: for Vd: male, BALB/c, iv, 2 mg/kg
Description: Animals: male BALB/c mice, SPF grade, purchased from Changzhou Cavens Experimental Animal Co., Ltd.; 16-24 g, license number: SCXK (Su)2016-0010; 2 to 3 days of adaptation period were given before the experiment.
Instruments: API 4500 High Performance Liquid Chromatograph Coupled Triple Quadrupole Mass Spectrometer, and Analyst QS A01.01 Chromatography Workstation were both purchased from AB SCIEX of the United States; Milli-Q ultrapure water device was purchased from Millipore; CF16R XII desktop high-speed refrigerated centrifuge was purchased From Hitachi Company; Qilinbeier Vortex-5 oscillator was purchased from IKA Company of German; electric heating constant-temperature water bath was purchased from Changzhou Guohua Electric Appliance Co., Ltd.; electric pipette was purchased from Thermo Company of American; and microanalysis balance was purchased from Shanghai Mettler Co., Ltd.
2 mg of the test compound was weighed, added to physiological saline, vortexed for 2 min, and ultrasonicated for 3 min, to prepare a test solution with a concentration of 0.2 mg/mL for intravenous administration.
A single dose of 2 mg/kg of the test compound was administered to BALB/c mice via the tail vein, the dose volume being 0.1 mL/10 g. At 5 min, 15 min, 30 min, 1 h, 2 h, 4 h after administration, blood samples were collected from the orbital venous plexus into heparinized EP tubes (0.6 mL), which were temporarily placed on crushed ice.
The samples were centrifuged at 8000 rpm for 5 min. 15 μL of upper plasma were transferred to a 96-well plate. 150 μL of methanol:acetonitrile (v/v=1:1) (containing 20 ng/mL tolbutamide) was added to 15 μL of plasma, shaken for 3 min, and centrifuged at 4500 rpm for 5 min. 100 μL of supernatant was taken to a 2 mL deep well plate. 100 μL of diluent (pure water) was added. The samples were shaken for 3 min, and centrifuged at 4500 rpm for 5 min. 180 μL of the supernatant was transferred to the sample plate. The content of the compound in the supernatant sample was analyzed by LC-MS/MS, and various pharmacokinetic parameters were calculated with WinNonlin software.

[2] = tested on: clinically isolated Acinetobacter baumannii; assay: MIC experiment of clinically sourced bacterial strains; assay type: cell-based; conditions: for MIC: Acinetobacter baumannii
Method: (§1) Compounds: the compound of Example 1 and Compound C of Comparative Example 3. Both test compounds were dissolved and diluted with DMSO, and the final concentrations were prepared as 64, 32, 16, 8, 4, 2, 1, 0.5, 0.25, 0.125, 0.0625 μg/mL in the experiment.
(§2) Bacterial strains: clinically isolated Acinetobacter baumannii, Pseudomonas aeruginosa, Klebsiella pneumoniae and Escherichia coli, all provided by HD Biosciences (Shanghai) Co., Ltd.
(§3) Medium: Trypticase soy agar (TSA) (BD BBL 211043), and Cation-adjusted Mueller Hinton broth (CAMHB) (BD BBL212322).
(§4) The experimental method was the same as that in the above Experimental Example 1.

[3] = tested on: clinically isolated Escherichia coli; assay: as above; assay type: cell-based
Method: as §1, §2, §3, §4

[4] = tested on: clinically isolated Klebsiella pneumoniae; assay: as above; assay type: cell-based; conditions: Klebsiella pneumoniae
Method: as §1, §2, §3, §4

[5] = tested on: clinically isolated Pseudomonas aeruginosa; assay: as above; assay type: cell-based
Method: as §1, §2, §3, §4

[6] = tested on: drug-resistant Acinetobacter baumannii; assay: MIC in combination with Relebactam; assay type: cell-based
Description: In addition, the inventors of the present invention also tested the inhibitory activities of the compound of Example 1 and Compound C, respectively, in combination with Relebactam on drug-resistant Acinetobacter baumannii (the experimental method was the same as that in Experimental Example 1).

[7] = tested on: Acinetobacter baumannii, Pseudomonas aeruginosa, and Escherichia coli; assay: In vitro antibacterial activity, summary statements over all strains of Experimental Example 1; assay type: cell-based; conditions: method of Experimental Example 1
Method: (§5) Compounds: The compounds prepared in the above examples and comparative examples. All test compounds were dissolved and diluted with DMSO, and the final concentrations were prepared as 64, 32, 16, 8, 4, 2, 1, 0.5, 0.25, 0.125, 0.0625 μg/mL in the experiment.
(§6) Bacterial strains: 6 strains of Acinetobacter baumannii (codenames: HDBAB-YK4, HDBAB-YK7, HDBAB-YK12, HDBAB-YK16, HDBAB_OXA_7, ATCC 19606), 2 strains of Pseudomonas aeruginosa (codenames: HDBPA-YK9, HDBPA)-YK15), 1 strain of Escherichia coli (codename: CLB30048), all provided by HD Biosciences (Shanghai) Co., Ltd.
The minimum inhibitory concentration (MIC) of each compound was recorded according to the guidelines of the Clinical and Laboratory Standards Institute.

[8] = tested on: Acinetobacter baumannii; assay: In vitro antibacterial activity, minimum inhibitory concentration (MIC); assay type: cell-based
Method: as §5, §6, §3
(§7) The bacteria used for the minimum inhibitory concentration (MIC) test were stored frozen at −80° C., and needed 2 days to recover before use. A small amount of frozen bacteria was scraped with a sterile inoculation loop for streak inoculation on a TSA solid medium petri dish. The dish was placed in an ordinary incubator at 35±2° C. for 20-24 hours. 5-10 Colonies with similar morphologies were picked from the above-mentioned petri dish with a sterile inoculating loop for streak inoculation again on a TSA solid medium petri dish. The dish was then placed in an ordinary incubator at 35±2° C. for 20-24 hours.
(§8) 1.02×CAMHB liquid medium was taken out from a 4° C. refrigerator and placed at room temperature for preheating. 5-10 Individual bacterial colonies were picked from the solid petri dish of the above Section 2.1 and re-suspended in 500 μL of 0.9% NaCl, and then the OD600 was adjusted to 0.1-0.15 with a spectrophotometer. Then the bacteria were diluted 400 times with 1.02×CAMHB (two-step dilution method: firstly diluting 10 times, then diluting 40 times).
(§9) The number of inoculated bacteria can be obtained by counting the colonies on the petri dish (see Section 2.4).
(§10) One compound was arranged in each row of a 96-well test plate: the highest test concentration for each compound was 64 μg/mL, which was diluted by a factor of two.
(§11) Growth control (GC): 1.02×CAMHB and dimethyl sulfoxide (DMSO) containing bacterial inoculum, no compound.
(§12) Sterile control (SC): Containing 1.02×CAMHB and DMSO, no compound.
(§13) All test compounds were dissolved and diluted with DMSO. 50 μL of 3.2 mg/mL of each test compound was transferred to the initial well (A1-H1) of the dilution plate, and then 25 μL of DMSO was transferred to other wells. The test compounds were sequentially diluted by a factor of 2 from column 1 to column 11 (i.e. drawing 25 μL of test compound from column 1 to column 2 and mixing well, and then drawing 25 μL of test compound from column 2 to column 3 and mixing well, and then drawing 25 μL of test compound from column 3 to column 4 and mixing well, and so on, until diluting to column 11).
(§14) 2 μL of the compound was transferred from the compound plate to the corresponding well of the test plate. Meanwhile, 2 μL of 100% DMSO was transferred to the compound-free wells (the GC and SC wells).
(§15) 98 μL of the corresponding bacterial inoculum was added to the test plate (except for the SC well).
(§16) 98 μL of 1.02×CAMHB medium was added to the SC well of the test plate.
(§17) After the system was added, the test plate was covered with a sterile lid, centrifuged at 800 rpm for 30 seconds, then shaken on a plate shaker at 400 rpm for 1 minute for mixing well, and then placed in an incubator at 35±2° C. for 20 hours.
(§18) The inoculated bacteria were gradient diluted by 10 folds with the liquid medium, from 10^−1 to 10^−3. 100 μL of the above bacterial dilution was spread evenly on a TSA petri dish, 2 replicates for each dilution. After the medium was absorbed by TSA for 10 minutes, the petri dishes were reversed and incubated in an incubator at 35±2° C. for 24 hours.
(§19) A compound management system was turned on to check whether the barcode and compound arrangement of each test plate were correct. […]

[9] = tested on: Escherichia coli; assay: as above; assay type: cell-based; conditions: strain CLB30048, read-out: MIC
Method: as §5, §6, §3, §7, §8, §9, §10, §11, §12, §13, §14, §15, §16, §17, §18, §19

[10] = tested on: Pseudomonas aeruginosa; assay: as above; assay type: cell-based
Method: as §5, §6, §3, §7, §8, §9, §10, §11, §12, §13, §14, §15, §16, §17, §18, §19

[11] = mouse, male BALB/c mice, single intravenous dose 2 mg/kg, plasma

CC1(C)[C@H](NC(=O)/C(=N\O[C@@H](COc2ccc(-c3cn(CCCN)[n+](CC4CNC4)c3)cc2)C(=O)O)c2csc(N)n2)C(=O)N1OS(=O)(=O)[O-] [Compound C, reference compound]
bioavailability (F) (in words) ([1]; compared with some compounds of the present invention): weaker | MIC ([2]; clinical strain A0242702): ≤ 0.063 µg/mL | MIC ([2]; clinical strain A0244122): 2 µg/mL (≈ 2.72 µM) | MIC ([2]; clinical strain A0248164): 2 µg/mL (≈ 2.72 µM) | MIC ([2]; clinical strain A0248384): 2 µg/mL (≈ 2.72 µM) | MIC ([2]; clinical strain A0252247): 0.125 µg/mL (≈ 0.17 µM) | MIC ([2]; clinical strain A0254384): 0.125 µg/mL (≈ 0.17 µM) | MIC ([2]; clinical strain A0255830): 16 µg/mL (≈ 21.7 µM) | MIC ([2]; clinical strain A0257674): 0.125 µg/mL (≈ 0.17 µM) | MIC ([2]; clinical strain A0258522): 0.125 µg/mL (≈ 0.17 µM) | MIC ([2]; clinical strain A0262855): 0.125 µg/mL (≈ 0.17 µM) | MIC ([2]; clinical strain A0270386): 1 µg/mL (≈ 1.36 µM) | MIC ([2]; clinical strain A0272260): 0.125 µg/mL (≈ 0.17 µM) | MIC ([2]; clinical strain A0273375): 1 µg/mL (≈ 1.36 µM) | MIC ([2]; clinical strain A0273826): 16 µg/mL (≈ 21.7 µM) | MIC ([2]; clinical strain A0274925): 0.25 µg/mL (≈ 0.34 µM) | MIC ([2]; clinical strain A0283307): 0.125 µg/mL (≈ 0.17 µM) | MIC ([2]; clinical strain A0284214): 0.125 µg/mL (≈ 0.17 µM) | MIC ([2]; clinical strain A0284295): 0.125 µg/mL (≈ 0.17 µM) | MIC ([2]; clinical strain A0284552): 0.5 µg/mL (≈ 0.68 µM) | MIC ([2]; clinical strain A0285002): 2 µg/mL (≈ 2.72 µM) | MIC ([2]; clinical strain A0285050): 0.25 µg/mL (≈ 0.34 µM) | MIC ([2]; clinical strain A0285231): 2 µg/mL (≈ 2.72 µM) | MIC ([2]; clinical strain A0285299): 0.25 µg/mL (≈ 0.34 µM) | MIC ([2]; clinical strain A0285369): ≤ 0.063 µg/mL | MIC ([2]; clinical strain A0285909): 16 µg/mL (≈ 21.7 µM) | MIC ([2]; clinical strain A0286065): 2 µg/mL (≈ 2.72 µM) | MIC90 ([2]; clinically isolated Acinetobacter baumannii): 16 µg/mL (≈ 21.7 µM) | MIC ([3]; clinical strain HDB0140): 2 µg/mL (≈ 2.72 µM) | MIC ([3]; clinical strain HDB0918): 0.25 µg/mL (≈ 0.34 µM) | MIC ([3]; clinical strain HDB1120): 0.125 µg/mL (≈ 0.17 µM) | MIC ([3]; clinical strain HDB5510): 0.25 µg/mL (≈ 0.34 µM) | MIC ([3]; clinical strain HDB8244): 0.25 µg/mL (≈ 0.34 µM) | MIC ([4]; clinical strain Kp309): 0.25 µg/mL (≈ 0.34 µM) | MIC ([4]; clinical strain Kp310): ≤ 0.063 µg/mL | MIC ([4]; clinical strain Kp472): 0.125 µg/mL (≈ 0.17 µM) | MIC ([4]; clinical strain Kp510): 0.25 µg/mL (≈ 0.34 µM) | MIC ([5]; clinical strain P7): 2 µg/mL (≈ 2.72 µM) | MIC ([5]; clinical strain P43): 0.25 µg/mL (≈ 0.34 µM) | MIC ([5]; clinical strain P155): 2 µg/mL (≈ 2.72 µM) | MIC ([5]; clinical strain P157): 2 µg/mL (≈ 2.72 µM) | MIC ([5]; clinical strain P162): 2 µg/mL (≈ 2.72 µM) | MIC ([6]; strain HDBAB-YK12, in combination with 4 μg/mL Relebactam): 8 µg/mL | MIC ([6]; strain HDBAB-YK16, in combination with 4 μg/mL Relebactam): 16 µg/mL | MIC ([6]; strain HDBAB_OXA_7, in combination with 4 μg/mL Relebactam): 16 µg/mL | in vitro antibacterial activity (in words) [7]: weaker

CC1(C)[C@H](NC(=O)/C(=N\O[C@@H](COc2ccc(-c3cn4[n+](c3)CC(OCCCN)C4)cc2)C(=O)O)c2csc(N)n2)C(=O)N1OS(=O)(=O)[O-] (stereo partly drawn) [Example 3, (3S)-3-((Z)-2-(((1S)-2-(4-(2-(3-aminopropoxy)-2,3-dihydro-1H-pyrazolo[1,2-a]pyrazol-4-ium-6-yl)phenoxy)-1-carboxyethoxy)imino)-2-(2-aminothiazol-4-yl)acetylamino)-2,2-dimethyl-4-oxoazetidin-1-yl Sulfate]
MIC ([8]; ATCC19606, strain ATCC 19606): 2 µg/mL | MIC ([8]; strain HDBAB-YK4): 2 µg/mL | MIC ([8]; strain HDBAB-YK7): 2 µg/mL | MIC ([8]; strain HDBAB-YK12): 2 µg/mL | MIC ([8]; strain HDBAB-YK16): 16 µg/mL | MIC ([8]; strain HDBAB_OXA_7): 8 µg/mL | MIC [9]: 4 µg/mL | MIC ([10]; strain HDBPA-YK9): 16 µg/mL | MIC ([10]; strain HDBPA-YK15): > 64 µg/mL | Vd ([1]; mouse, plasma, male BALB/c mice, single intravenous dose 2 mg/kg, plasma, read-out: VSS): 0.26 L/kg | Vd ([1]; mouse, plasma, male BALB/c mice, single intravenous dose 2 mg/kg, plasma, read-out: Vd): 0.35 L/kg | AUC(0-inf) [1, 11]: 2310 ng·h/mL | AUC(0-t) [1, 11]: 2300 ng·h/mL | C0 [1, 11]: 8650 ng/mL | clearance [1, 11]: 14.5 mL/min/kg | half-life [1, 11]: 16.8 min | in vitro antibacterial activity (in words) [7]: excellent antibacterial activity
